# Assay results as given in patent US20170312260A1 (LAUNX BIOMEDICAL CO., LTD., priority 2014, published 2017).
# System: cancers cell lines
# Test: Inhibition test on all kinds of cancer cell lines (overall statement)
# Type: cell-based
# Conditions: several / various cancer cell lines, Table 18, FIG. 1
# Method: The cell numbers were counted and reseed as 2×10^6 in cell culture plate/flask. Then, the culture medium were added to a volume of 10 ml, and the cells were cultured for 2-3 days. Then, the cells were suspended for loading into 96-well plates. The number of cells was 3000 and the volume of the culture medium was 100 μl each well.
# Removing the original culture medium from 96-well plate. Then add 100 μl of commercially drug at a concentration of 10 μM per well. After 72 hours, add the diluted WST-1 reagent to the well with 100 μl/well, and the diluted WST-1 reagent was acquired from the dilution of 9:1 medium and WST-1 stock reagent. Finally, the total volume of each well was 200 μl/well. Culture the 96-well plate at 37° C. for 30 to 90 minutes. Detecting and calculate the survival rate of each cancer cells with an ELISA reader at OD450 nm.
# As a result in the experiments of the present invention.
smiles,measurement,value
Fc1ccc([C@@H]2CCNC[C@H]2COc2ccc3c(c2)OCO3)cc1 [Paroxetine],inhibitory effect on cancer cell lines (in words),significant inhibitory effect
